Assay results published in patent US20260357349A1, “METHODS OF IDENTIFYING AND TREATING CANCER” (Agency for Science, Technology and Research, priority 2022, published 2026).
“Also recorded” adds a separate entry of the source.

Assays:
[1] = tested on: NF-κB target genes (786-O cells); assay: RT-qPCR of NF-κB target genes after NF-κB inhibitor, 786-O; assay type: cell-based, human; conditions: 0.006 μM bortezomib or 0.6 µM Bay 11-7085, 24 hours
Method: (§1) Colony formation of parental (WT) or PBRM1 knockout (KO) 786-O cells expressing shRNA against non-targeting control (NC), RELA, or NFKB1 cultured with a) 10% or b) 2% serum. c) Gene expression changes of NF-κB target genes in 786-O cells treated with 0.006 μM bortezomib (BTZ) or 0.6 µM Bay 11-7085 for 24 hours (n=3 technical replicates). * p-value<0.05 (two-sided t-test). […] A positive log fold change refers to gain in bortezomib treatment over DMSO. g) Colony formation of 786-O isogenic cells and h) NCC432 isogenic cells treated with bortezomib for a week. Tumor formation of isogenic 786-O cells (i) and NCC432 cells (j) treated with PBS control or 0.5 mg/kg bortezomib (BTZ) in NSG mice. (n=10 tumors per group for 786-O, and n=16 tumors for NCC432 PBS EV group and 12 tumors for NCC432 PBS PBRM1 group and 14 tumors for both NCC432 EV and PBRM1 BTZ groups). Data are presented as mean values+/−SEM. k) Model for the study.

IκBα / NF-κB = conditions: cited from earlier work
786-O cells = assay: Colony formation, 786-O isogenic cells; assay type: cell-based, human; conditions: 786-O with and without PBRM1, vs DMSO
Method: as §1
Data are presented as median+/−25%. […] Data are presented as mean values+/−SD. e) Tornado plots of RELA and SMARCA4 ChIP-seq signals in parental 786-0 or PBRM1-KO 786-O cells treated with DMSO or 0.005 μM bortezomib for 9 hours. f) Kaplan-Meier curves of NSG mice bearing 786-O isogenic cells treated with PBRM1 control or 0.5 mg/kg bortezomib (WT: n=10 PBS arm, median survival=39 days; n=10 bortezomib arm, median survival=52 days, HR=4.1, p=3E-6, log rank test; KO: n=10 PBS arm, median survival=35 days, n=10 bortezomib arm, median survival=66 days, HR=4.1, p=3E-6, log rank test). g) Kaplan-Meier curves of NSG mice bearing NCC432 isogenic cells treated with PBRM1 control or 0.5 mg/kg bortezomib (EV: n=16 PBS arm, median survival=42 days; n=14 bortezomib arm, median survival=49 days, HR=2.5, p=0.0009, log rank test; PBRM1: n=12 PBS arm, median survival=55 days; n=14 bortezomib arm, median survival=58 days, HR=1.2, p=0.5, log rank test). h) 786-O PBRM1 WT or KO cells were screened against the high-specific SGC epigenetic probe collection and cell viability was measured by colony formation after 1 week of treatment relative to DMSO control. […]

[2] = tested on: RELA occupancy at NF-κB target genes; assay: ChIP-qPCR of RELA occupancy after SMARCA2/4 ATPase inhibitor, 786-O; assay type: cell-based, human; conditions: PB1-deficient setting, 24 hours
Method: For each protein of interest, approximately 2×10^7 cells were cross-linked with 1% formaldehyde for 10 min at room temperature, and stopped by adding glycine to a final concentration of 0.2M. Chromatin was extracted and sonicated to ~500 bp (Vibra cell, SONICS). The following antibodies were used for chromatin immunoprecipitation: PBRM1 (Bethyl A301-591A Lot: 3-4), SMARCA4 (AbCAM ab110641 Lot: GR3208604-8), ARID2 (Bethyl A302-230A Lot: 2), BRD7 (Bethyl A302-304A Lot: 1), ARID1A (Santa Cruz sc-32761 Lot: #H2217), SMARCC1 (Santa Cruz sc-32763 Lot: #K1617), NFkB p65/RELA (Santa Cruz sc-372 Lot: #J1915; Diagenode C15310256, Lot: 24468; Invitrogen 51-0500, Lot: WG331314), BRD9 (Bethyl A303-781A, Lot2), RNA POL II (Merck Millipore 05-623 Lot: 2958013), H3K27ac (AbCAM ab4729-100 Lot: 741806), H3K14ac (AbCAM ab52946 Lot: GR3252548-5), H3K4me3 (Merck Millipore 07-473 Lot: 2930138), H3K4me1 (AbCAM ab8895 Lot: GR312093-1), H3K27me3 (Millipore 07-449 Lot: JBC1924326), H3K9me3 (Millipore 07-442 Lot: DAM1411287). The total volume of immunoprecipitation was 2 ml and the amount of antibody used was 20 μg. The input DNA was precleared with protein G Dynabeads (LifeTechnologies) for 2 hours at 4 °C and then incubated with antibodies overnight at 4 °C. […] Each library was sequenced to an average depth of 30-50 million reads on HiSeq2000, HiSeq4000 or Novaseq 6000.

[3] = tested on: NF-κB pathway (786-O cells); assay: RNA-seq gene set enrichment of direct NF-κB targets after SMARCA2/4 ATPase inhibitor, 786-O; assay type: cell-based, human; conditions: 10 μM, 24 hours
Method: Data are presented as mean values+/−SD. b, c) 786-O parental and PBRM1 KO cells were treated with 10 μM of SMARCA2/4 ATPase inhibitor for 24 hours and transcriptomic changes were evaluated by RNA-seq (n=2 biological replicates). […] P values were calculated by Kolmogorov-Smirnov test and q value was adjusted for multiple hypotheses testing using gene permutation. d) 786-O cells expressing dox inducible shRNA against ARID2 were treated with 1 μg/ml doxycycline for 2 days and the gene expression of NF-κB targets were quantified by RT-qPCR (n=3 technical replicates representative of 2 biological replicates). Data are presented as mean values+/−SD. * p<0.05, ** p<0.01 (two-sided t-test). e) Single cell clones of either PBRM1 or ARID2 knockout were created in 769-P cells. […] P values were calculated by Kolmogorov-Smirnov test and q values were adjusted for multiple hypotheses testing using gene permutation. […]
Total RNA was extracted using the Qiagen RNeasy Mini kit. […] Sequencing was performed on an Illumina HiSeq4000 sequencer with the paired-end 150 bp read option.
RNA-Seq Pathway Analysis RNA-seq data were mapped to hg19 (h117d5) using STAR, with GENCODE annotation (gencode.v19.annotation.gtf) and recommended settings from STAR manual. Gene expression levels were quantified with STAR. […]

[4] = tested on: NF-κB target genes (NCC432 cells); assay: RT-qPCR of NF-κB target genes after SMARCA2/4 ATPase inhibitor, NCC432; assay type: cell-based, human
Description: Data are presented as mean values+/−SD. b) Colony formation of 786-O cells expressing shRNA against non-targeting control (NTC) or ARID2. c) Colony formation of 786-O cells expressing shRNA against non-targeting control (NTC) or SMARCA4. d) Immunoblotting and e) colony formation of NCC432 cells expressing shRNA against non-targeting control (NTC) or ARID2 (n=3 biological replicates). Data are presented as mean values+/−SD. * p<0.05, ** p<0.01 (two-sided t-test). f) Immunoblotting and g) colony formation of NCC432 cells expressing shRNA against non-targeting control (NTC) or SMARCA4 (n=4 biological replicates). Data are presented as mean values+/−SD. *** p<0.001, **** p<0.0001 (two-sided t-test). In vivo tumor formation in h) 786-O parental cells and i) 786-0 PBRM1 KO cells expressing shRNA against non-targeting control (NTC), ARID2 (clone 1) or SMARCA4 (clone 2) (n=10 tumors per group). Data are presented as mean values+/−SEM for tumor growth and mean values+/−SD for tumor weight. **** p<0.0001 (two-sided t-test).
It was previously shown that inhibiting the SMARCA4 ATPAse subunit abolished chromatin accessibility and binding of SMARCA4-dependent transcription factors. To understand whether the activation of pathway requires the ATPase activity of SMARCA4, 786-O and NCC432 cells were treated with SMARCA2/4 ATPase inhibitor. […]

[5] = tested on: NF-κB target genes (786-O cells); assay: RT-qPCR of NF-κB target genes after SMARCA2/4 ATPase inhibitor, 786-O; assay type: cell-based, human
RCC = conditions: best responder to the combined therapy; cited from earlier work

CC(C)(C)c1ccc(S(=O)(=O)/C=C/C#N)cc1 [Bay 11-7085]
suppressing the expression of NF-κB target genes [1]: not Bay 11-7085 was effective
effect on IκBα phosphorylation (IκBα / NF-κB; TNFα-induced vs basal): inhibits TNFα-induced but not basal IκBα phosphorylation
effect on nuclear translocation of NF-κB (IκBα / NF-κB; TNFα-induced): prevents TNFα-induced nuclear translocation of NF-κB
reducing colony formation (786-O cells): not Bay 11-7085 was effective

O=C(Nc1cc(C(F)F)ns1)Nc1cc(F)ncc1CO [SMARCA2/4 ATPase inhibitor]
regions probed with significantly decreased RELA occupancy [2]: 5/6
gene set enrichment of direct NF-κB targets, PB1-deficient vs parental [3]: greater effect of NF-κB downregulation in PB1-deficient cells compared to parental 786-O cells; also recorded: greater downregulation of NF-κB pathway in PBRM1-deficient cells compared to parental 786-O cells
downregulation of BCL2A1 and TNF, PB1-deficient vs proficient ([4]; NCC432): greater downregulation in the PB1-deficient setting compared to the proficient setting
downregulation of NF-κB target genes ([4]; NCC432 empty vector or PBRM1, 3 days): dose-dependent downregulation of NF-κB target genes
downregulation of BCL2A1 and TNF, PB1-deficient vs proficient ([5]; 786-O): greater downregulation in the PB1-deficient setting compared to the proficient setting
downregulation of NF-κB target genes ([5]; 786-O parental and PB1 KO, 10, 20 and 50 μM, 3 days): dose-dependent downregulation of NF-κB target genes
sensitivity of PDLIM4 and APOL3 expression ([5]; both PB1-proficient and deficient setting): exquisitely sensitive

bevacizumab: bevacizumab therapy
prior therapy outcome (RCC): failed
